Common to all, as to format: cell-based
In assay [1] the test system is ERα Y537S mutant-expressing MCF7 cells. Put plainly: Inhibition of proliferation of ERα mutant-expressing MCF7 cells. The following applies: Homo sapiens, 144 h. The source says:
The mutant estrogen receptor α (ERα) Y537S of human ERα protein was obtained by site-directed mutagenesis in a two-primer PCR manner using the cDNA of wild-type ESR1 gene (Accession No. NM000125) as a template. The sequences of the primers used in the mutation are as follows (the underlined nucleotides are the sites of mutation): Y537S: F-AAGAACGTGGTGCCCCTCTCTGACCTGCTGCTGGAGATG (SEQ ID NO: 1); R-CATCTCCAGCAGCAGGTCAGAGAGGGGCACCACGTTCTT (SEQ ID NO: 2). The cDNA of the mutant ESR1 was cloned into the lentiviral vector of interest pCDH-CMV-MCS-EF1-Puro. The lentiviral plasmid bearing the mutant ESR1 gene sequence and the lentiviral packaging plasmid were then transfected into HEK-293T cells (ATCC, CRL-3216) by using Lipofectamine 3000 Transfection Reagent (ThermoFisher Scientific, Cat #L3000075). Forty-eight hours after transfection, the virus-bearing medium supernatant was filtered and ultracentrifuged to obtain a virus precipitate, which was then resuspended in an appropriate amount of medium. The suspension was added to MCF7 cells (ATCC, HTB-22), followed by the addition of polybrene at a final concentration of 8 μg/mL. The mixture was incubated overnight. Two days after transfection, 1 μg/mL puromycin was added to the cell culture liquid for resistance screening. About two weeks later, an MCF7 cell line capable of stably expressing the ERαY537S mutant was obtained.
The ERα mutant-expressing MCF7 cells were cultured in an MEM (GE Healthcare, SH30024.01) complete medium containing 10% fetal bovine serum. On the first day of the experiment, the cells were seeded into a 96-well plate with complete medium at a density of 3,000 cells/well to form 100 μL of cell suspension per well. The plate was incubated overnight in a cell incubator at 37° C. with 5% CO2. The following day the medium was removed, and 135 μL of an MEM incomplete medium containing 2% fetal bovine serum, and 15 μL of a test compound prepared at different concentrations with the incomplete medium were added to each well. The final concentrations of the compound were 9 concentration points obtained by 4-fold serial dilution from 100 nM. A blank control containing 0.5% DMSO was set. The plate was incubated in a cell incubator at 37° C. with 5% CO2 for 144 h. On day 8, the 96-well cell culture plate was taken out. 150 μL of CellTiter-Glo® Luminescent Cell Viability Assay (Promega, G7573) was added to each well. The plate was let stand at room temperature for 10 min, and the luminescence signal values was read using a multilabel microplate reader (PerkinElmer, VICTOR 3). The IC50 values for the inhibitory activity of the compounds were calculated according to the compound concentrations and the luminescence signal values and are shown in Table 3.

The next assay relates to MCF-7 cells. Briefly: Inhibition of proliferation of MCF-7 cells (ATP method, Cell Titer-Glo). The following applies: Homo sapiens, MCF7; MCF-7 cells, 72 h. The protocol:
This experiment was intended to test the inhibitory effects of the compounds disclosed herein on the proliferation of MCF-7 Cells by using the ATP method, and to evaluate the in vitro activity of the compounds according to the IC50 values.
MCF-7 cells (TCHu74, National Collection of Authenticated Cell Cultures) were seeded into a 96-well plate with an MEM (hyclone, SH30024.01B) medium containing 10% FBS (Gibco, 10099-141), 1% sodium pyruvate (sigma, 58636) and 1% non-essential amino acid (sigma, M7145) at a density of 4,000 cells/well and cultured at 37° C. with 5% CO2. 20 mM stock solutions of the compounds are prepared, serially diluted with 100% DMSO to a final concentration of 1000×, and then diluted 20-fold with a medium containing 2% FBS. After the cells were cultured for 24 h, the medium was removed. 90 μL of the medium containing 2% FBS and 10 μL of a drug were added to each well, and 10 μL of DMSO was added to the control group. The mixtures were well mixed by gentle shaking. The blank group contained only 100 μL of the medium containing 2% FBS. The cells were cultured in an incubator at 37° C. with 5% CO2 for 72 h, and then 50 μL of mixed Cell Titer-Glo (Promega, G7571) was added to each well. The mixtures were well mixed by shaking and let stand at room temperature for 10 min, and the chemiluminescence signal values were determined.
The chemiluminescence signal value was plotted against the compound concentration (in log form) using Graphpad Prism, and the IC50 values of the compounds were obtained.
A general note: ATP-based viability assays read luminescence as a measure of living cells.

Another assay deals with ER (estrogen receptor) (Homo sapiens (Human), UniProt P03372). Put plainly: Inhibition of binding of E to ER (MCF-7/ERE-luciferase reporter cells). The following applies: MCF-7/ERE-luciferase cells, 0.1 nM estradiol, 24 h. The protocol: The compounds of the present disclosure can inhibit the binding of E (estrogen) to ER (estrogen receptor), thereby blocking the binding of the complex of E and ER to ERE (estrogen response element), and consequently the expression of downstream luciferase proteins. The inhibitory effects of the compounds of the present disclosure on the binding of E to ER was tested by using the following method.
An ERE was cloned upstream of the luciferase gene, and MCF-7/ERE-luciferase monoclonal cells were selected by transfection of MCF-7 (TCHu74, National Collection of Authenticated Cell Cultures). The MCF-7/ERE-luciferase cells were seeded into a 96-well plate with an MEM (hyclone, SH30024.01B) medium containing 10% charcoal stripped FBS (Moregate, FBSF), 1% sodium pyruvate (sigma, S8636), 1% non-essential amino acids (sigma, M7145) and 500 μg/mL G418 at a density of 30,000 cells/well and cultured at 37° C. with 5% CO2. 20 mM stock solutions of the drugs are prepared, serially diluted 10-fold with 100% DMSO, and then diluted 20-fold with the medium. After the cells were cultured for 24 h, the medium was removed. 0.1 nM estradiol (sigma, E2758) and 10 μL of a medium-diluted drug were added to each well, and DMSO was added to the control group. The mixtures were well mixed by gentle shaking. The cells were cultured in an incubator at 37° C. with 5% CO2 for 24 h, and then the cell culture liquid was removed, followed by the addition of 50 μL of a luciferase substrate (Promega, E6110) to each well. The plate was let stand at room temperature in the dark for 10-15 min, and the chemiluminescence signal values were determined.
The inhibitory effects of the compounds of the present disclosure on the binding of E to ER were tested through the above experiment. The chemiluminescence signal value was plotted against the compound concentration (in log form) using Graphpad Prism, and the IC50 values of the compounds were obtained.
(In general: In a reporter assay the amount or activity of a reporter protein is the signal.)

We go through 3 compounds from US12428428B2, “Tricyclic tetrahydroisoquinoline derivative, preparation method therefor and application thereof in medicine” (JIANGSU HENGRUI MEDICINE CO., LTD., priority 2020, dated 2025).

ER (estrogen receptor), sequence (P03372 whole entry): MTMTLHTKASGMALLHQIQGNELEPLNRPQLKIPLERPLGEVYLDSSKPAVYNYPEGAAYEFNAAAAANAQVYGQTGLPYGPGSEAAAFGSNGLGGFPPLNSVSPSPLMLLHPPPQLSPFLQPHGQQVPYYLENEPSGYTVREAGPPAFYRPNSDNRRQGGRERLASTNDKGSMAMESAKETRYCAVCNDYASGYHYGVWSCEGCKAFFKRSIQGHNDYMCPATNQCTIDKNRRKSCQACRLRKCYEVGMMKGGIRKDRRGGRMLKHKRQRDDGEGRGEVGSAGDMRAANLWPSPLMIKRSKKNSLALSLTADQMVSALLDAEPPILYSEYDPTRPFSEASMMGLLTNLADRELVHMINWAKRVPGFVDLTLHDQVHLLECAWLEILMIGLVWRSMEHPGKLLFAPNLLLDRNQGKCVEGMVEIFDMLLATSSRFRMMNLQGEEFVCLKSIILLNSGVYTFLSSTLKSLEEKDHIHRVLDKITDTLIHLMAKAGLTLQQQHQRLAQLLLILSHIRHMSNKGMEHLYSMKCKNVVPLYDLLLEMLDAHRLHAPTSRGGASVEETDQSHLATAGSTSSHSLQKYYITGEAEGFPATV

Consider `C[C@@H]1Cc2cc3c(cc2[C@@H](c2ccc(N[C@H]4CCN(CCCF)C4)cn2)N1CC(F)(F)CO)OCO3` [Example 4, 2,2-Difluoro-3-((5S,7R)-5-(5-(((S)-1-(3-fluoropropyl)pyrrolidin-3-yl)amino)pyridin-2-yl)-7-methyl-7,8-dihydro-[1,3]dioxolo[4,5-g]isoquinolin-6(5H)-yl)propan-1-ol], for which the figures for the IC50 (in assay [1]; in the assay on MCF-7 cells; on ER (estrogen receptor)) were 0.89 nM, 0.28 nM and 0.37 nM, respectively.

`C[C@@H]1Cc2cc3c(cc2[C@@H](c2c(F)cc(O[C@H]4CCN(CCCF)C4)cc2F)N1CC(F)(F)F)OCO3` [Example 15, (5S,7R)-5-(2,6-difluoro-4-(((S)-1-(3-fluoropropyl)pyrrolidin-3-yl)oxy)phenyl)-7-methyl-6-(2,2,2-trifluoroethyl)-5,6,7,8-tetrahydro-[1,3]dioxolo[4,5-g]isoquinoline]: the IC50 (in general, the concentration that gives 50% inhibition) was 0.68 nM in assay [1], 0.3 nM with MCF-7 cells and 0.19 nM on ER (estrogen receptor).

For `C[C@@H]1Cc2cc3c(cc2[C@@H](c2c(F)cc(N[C@H]4CCN(CCCF)C4)cc2F)N1CC(F)(F)CO)OCO3` [Example 5, 3-((5S,7R)-5-(2,6-difluoro-4-(((S)-1-(3-fluoropropyl)pyrrolidin-3-yl)amino)phenyl)-7-methyl-7,8-dihydro-[1,3]dioxolo[4,5-g]isoquinolin-6(5H)-yl)-2,2-difluoro-1-propanol], the half-maximal inhibitory concentration (IC50) came out at 0.07 nM in assay [1], 0.03 nM with MCF-7 cells and 0.05 nM at ER (estrogen receptor).
